The values below come from patent US11426367B2, “Methods of treating substance abuse” (Perception Neuroscience, Inc., priority 2018, dated 2022).

For data set [1], the system named is Morphine Seizures. The following applies: Not blocked by naloxone; Kolesnikov et al., 1997; cited from earlier work.
The test system of data set [2] is Control C57/B6 mice. The data set can be described thus: Conditioned place preference test (dependence test) in control mice. The following applies: control mice, 5, 10 or 20 mg/kg, injected on day 4, 6 and 8, test on day 11.
Protocol: 15-minute habituation was performed for 3 days. Then, 30-minute conditioning was performed on day 4 to day 10, and a behavioral evaluation test was performed on day 11. Saline was injected on day 5, day 7, and day 9. […] In each of the groups, the injection was performed three times, i.e., on day 4, day 6, and day 8. Saline means a group injected with saline.
The administration of an agent was performed by the same methods as the methods described in Example 2.
The place preference test was performed using a conditioned place preference test apparatus (BrainScienceIdea Co., Ltd., Osaka, Japan). The analysis of the results of the place preference test was performed by one-way analysis of variance (one-way ANOVA), followed by a least significant difference test (LSD test). Data are presented as the mean plus minus standard error of the mean (n=9 or 10 mice/group). *p<0.05 and **p<0.01 indicate significant differences as compared to a group injected with saline.
Data set [3] deals with social defeat stress mice. The data set is described as follows: 1% sucrose preference test (SPT), social defeat stress model. The class given is in vivo. The following applies: 10 mg/kg i.p. The procedure:
A social defeat stress model of depression was prepared by bringing C57/B6 male mice into contact with ICR male mice (large aggressive mice) for 10 consecutive days to apply a stress called a “social defeat stress” in accordance with the previous report (Non Patent Literature 19). […] Specifically, an increase in immobility time was found in each of a tail suspension test (TST) and a forced swimming test (FST).
The preparation of the animal model of depression and the administration of the agent were specifically performed as described below (FIG. 3A). Male C57/B6 mice (7-week-old, Japan SLC, Inc., Hamamatsu, Japan) and ICR mice (9-week-old, Japan SLC, Inc., Hamamatsu, Japan) were used. The mice were given free access to water and feed. A social defeat stress was applied by housing one C57/B6 mouse with one ICR mouse for 10 days.
The antidepressant effects of the agent were investigated by behavioral tests such as the TST, the PST, the LMT, and a 1% sucrose preference test (SPT) (FIG. 3A). The 1% sucrose preference test (SPT) was performed on 1 day and 6 days after the injection of ketamine. Each of the TST and the PST was performed on 2 days and 7 days after the injection of ketamine. The TST was performed as described below. First, the mice were taken out from cages, and then a small piece of an adhesive tape was bonded onto a portion approximately 2 cm away from the tip of the tail of the mice. A small hole was opened in the small piece, and the mice were each fixed upside down on a hook through the small hole. The immobility time of each mouse was recorded for 10 minutes. Mice were considered immobile only when they hung passively and completely motionless. The immobility time increases in a depressive state. The PST was performed as described below. First, the mice were placed individually in a cylinder (diameter: 23 cm; height: 31 cm) containing 15 cm of water, maintained at 22 to 24 deg C. The mice were tested in an automated forced-swimming apparatus using SCANET MV-40 ([…] Co., Ltd., Toyama, Japan). The immobility time was calculated as a value obtained by subtracting active time from total time, using the analysis software of the apparatus. Cumulative immobility time was recorded over 6 minutes during a test period. The LMT was performed as described below. First, the mice were placed in experimental cages (length×width×height: 560×560×330 mm). The locomotor activity of the mice was counted with SCANET MV-40, and the cumulative exercise of the mice was recorded for 60 minutes. The cages were cleaned between testing session. The immobility time increases in a depressive state. […] A spine density was quantitatively evaluated by observation with a KEYENCE microscope (BZ-9000, Osaka, Japan).

Data set [4] concerns DEX-treated mice. The data set can be described thus: Forced swimming test (FST), neonatal dexamethasone exposure model of depression. Type of data set: in vivo. As to conditions: juvenile DEX-treated mice, 10 mg/kg i.p. single injection. The procedure:
A new animal model of depression was prepared by exposing mice neonatally to dexamethasone (hereinafter abbreviated as DEX). […] The mouse model was prepared and reported only recently by the inventors of the present application and their collaborators (Non Patent Literature 18). […] Further, alterations were found in levels of amino acids (glutamate, glutamine, glycine, D-serine, and L-serine) in mouse brains after the neonatal DEX exposure (Non Patent Literature 18). Those amino acids are known to be associated with NMDA receptor mediated neurotransmission. Thus, it is conceivable that alterations in glutamatergic transmission via the NMDA receptor after the neonatal DEX exposure may be involved in the depression-like behavior in the juvenile mice and the adult mice (Non Patent Literature 18).
The preparation of the animal model of depression and the administration of the agent were specifically performed as described below (FIG. 2A). Male and female ICR mice (9-week-old, Japan SLC, Inc., Hamamatsu, Japan) were used. The mice were given free access to water and feed. A breeding procedure consisted of housing three to four females with one male, for 14 days. On the final day of this period, the females were placed in isolation and checked daily around the expected delivery day. The day of birth was defined as day 0. The mice were injected intraperitoneally with DEX (Wako Pure Chemical Industries, Ltd., Tokyo, Japan) dissolved in saline on day 1, day 2, and day 3 at doses of 0.5 mg/kg body weight, 0.3 mg/kg body weight, and 0.1 mg/kg body weight, respectively. In addition, normal controls were injected with equal volumes (10 ml/kg) of saline.
The antidepressant effects of the agent were investigated for juvenile mice by behavioral tests such as the TST, the PST, the LMT, and a 1% sucrose preference test (SPT) (FIG. 2A). The TST and the PST were performed twice, i.e., the day (27 hours and 29 hours, respectively) and 7 days after the injection of ketamine, and the LMT and the SPT were performed on the day and 2 days after the injection of ketamine. The TST was performed as described below. First, the mice were taken out from cages, and then a small piece of an adhesive tape was bonded onto a portion approximately 2 cm away from the tip of the tail of the mice. […] The immobility time of each mouse was recorded for 10 minutes. […] The immobility time was calculated as a value obtained by subtracting active time from total time, using the analysis software of the apparatus. Cumulative immobility time was recorded over 6 minutes during a test period. […] The locomotor activity of the mice was counted with SCANET MV-40, and the cumulative exercise of the mice was recorded for 60 minutes. […]

In data set [5] the test system is Control C57/B6 mice. The data set is described as follows: Prepulse inhibition test in control mice. The following applies: control mice, 5, 10 or 20 mg/kg.
Protocol: PP69, PP73, PP77, and PP81 mean that stimuli at 69, 73, 77, and 81 dB for more than 20 milliseconds were presented 100 milliseconds before a 110-dB pulse, respectively. Data analysis was performed by Wilks Lambda, which is multivariate analysis of variance (Example 3).
The prepulse inhibition test was performed using a startle response system (SR-LAB, SanDiego Instruments, San Diego, Calif., United States). The analysis of the results of prepulse inhibition was performed by multivariate analysis of variance (MANOVA), followed by a least significant difference test (LSD test). Data are presented as the mean plus minus standard error of the mean (n=10 to 12 mice/group). *p<0.05 and p<0.01 indicate significant differences as compared to a group injected with saline.

For `CN[C@@]1(c2ccccc2Cl)CCCCC1=O.Cl` [R(−)-ketamine], in data set [1], the “Morphine Seizures, dose” value was 0.3 mg/kg. Besides, the “CPP score (conditioned place preference test)” value in data set [2] is “did not increase the CPP score”. For the same compound, the “sucrose consumption preference in the SPT” value in data set [3] (1 day after injection) was “sucrose consumption preference significantly increased”; in data set [3] (6 days after injection) it was “significantly restored the sucrose consumption preference”. Moreover, the figures for the “immobility time in the FST” value in data set [4] (29 hours after injection) and in data set [4] (7 days after injection) were “markedly reduced the immobility time” and “significantly reduced the immobility time”, respectively. In addition, the prepulse inhibition result in data set [5] is recorded as “did not disrupt prepulse inhibition”.

Turning to `CN[C@]1(c2ccccc2Cl)CCCCC1=O` [S(+)-ketamine], the “Morphine Seizures, dose” value in data set [1] is listed as 0.03 mg/kg. Further, in data set [2], the “CPP score (conditioned place preference test)” value is listed as “increased the CPP score in a dose-dependent manner”. Moreover, the “sucrose consumption preference in the SPT” value in data set [3] (1 day after injection) was “sucrose consumption preference significantly increased”; in data set [3] (6 days after injection), “significantly restored the sucrose consumption preference”. Further, the “immobility time in the FST” value is “markedly reduced the immobility time” in data set [4] (29 hours after injection) and “did not reduce the immobility time” in data set [4] (7 days after injection). In data set [5], the prepulse inhibition result was “disrupted prepulse inhibition in a dose-dependent manner”.
